According to patent publication US8829026B2, “Sulfamoyl benzoic acid heterobicyclic derivatives as TRPM8 antagonists” (RaQualia Pharma Inc., priority 2010, dated 2014):

Target: T1, human TRPM8 (Homo sapiens, UniProt Q7Z2W7)
T1 construct: expressed in transfected cells
Assay: Menthol-induced Ca2+ influx in HEK293 cells stably expressing human TRPM8
Type: cell-based
Conditions: 30 microM menthol-induced Ca2+ influx, HEK293 cells stably expressing human TRPM8, 11-point dose-response
Description: Measurement of the Menthol-Induced Ca^2+ Influx in HEK293 Cells Stably Expressing Human TRPM8
A cell-based Ca^2+ influx assay using HEK293 cells stably expressing human TRPM8 was used to identify the activity of compounds.
HEK293 cells stably expressing human TRPM8 were grown in T175 flasks at 37° C. in a 5% CO2 humidified incubator to about 80% confluence. Media composition consisted of Dulbecco's Modified Eagle Medium (high glucose), 10% fetal calf serum (FCS), 100 units/ml Penicillin, 100 microg/ml Streptomycin and 600 microg/ml Geneticine. At 24 hours prior to assay, cells were seeded in poly-D-lysine coated 384-well plates (BD FALCON) at a density of 30,000 cells per well in culture medium and grown overnight in 5% CO2 at 37° C. On the assay day, growth media was removed and cells were loaded with 0.5 microM Fluo4-AM (Molecular Probes) and 0.005% Pluronic F-127 dissolved in assay buffer (Hank's balanced salt solution (HBSS), 19.4 mM HEPES pH7.4, 2.5 mM Probenecid) for 1 hour at room temperature. After washing with assay buffer, the cells were preincubated with various concentrations of the compounds for 5 min. The changes in intracellular calcium concentration by addition of 30 microM menthol were monitored by the cell imaging technology by Hamamatsu Photonics's Functional Drug Screening System (FDSS).
The IC50 values for compounds of the present invention were determined from 11-point dose-response studies. Curves were generated using the average of duplicate wells for each data point. Finally, the IC50 values are calculated with the best-fit dose curve determined by XLfit (ID Business Solutions Ltd.).

T1 sequence (Q7Z2W7 whole entry): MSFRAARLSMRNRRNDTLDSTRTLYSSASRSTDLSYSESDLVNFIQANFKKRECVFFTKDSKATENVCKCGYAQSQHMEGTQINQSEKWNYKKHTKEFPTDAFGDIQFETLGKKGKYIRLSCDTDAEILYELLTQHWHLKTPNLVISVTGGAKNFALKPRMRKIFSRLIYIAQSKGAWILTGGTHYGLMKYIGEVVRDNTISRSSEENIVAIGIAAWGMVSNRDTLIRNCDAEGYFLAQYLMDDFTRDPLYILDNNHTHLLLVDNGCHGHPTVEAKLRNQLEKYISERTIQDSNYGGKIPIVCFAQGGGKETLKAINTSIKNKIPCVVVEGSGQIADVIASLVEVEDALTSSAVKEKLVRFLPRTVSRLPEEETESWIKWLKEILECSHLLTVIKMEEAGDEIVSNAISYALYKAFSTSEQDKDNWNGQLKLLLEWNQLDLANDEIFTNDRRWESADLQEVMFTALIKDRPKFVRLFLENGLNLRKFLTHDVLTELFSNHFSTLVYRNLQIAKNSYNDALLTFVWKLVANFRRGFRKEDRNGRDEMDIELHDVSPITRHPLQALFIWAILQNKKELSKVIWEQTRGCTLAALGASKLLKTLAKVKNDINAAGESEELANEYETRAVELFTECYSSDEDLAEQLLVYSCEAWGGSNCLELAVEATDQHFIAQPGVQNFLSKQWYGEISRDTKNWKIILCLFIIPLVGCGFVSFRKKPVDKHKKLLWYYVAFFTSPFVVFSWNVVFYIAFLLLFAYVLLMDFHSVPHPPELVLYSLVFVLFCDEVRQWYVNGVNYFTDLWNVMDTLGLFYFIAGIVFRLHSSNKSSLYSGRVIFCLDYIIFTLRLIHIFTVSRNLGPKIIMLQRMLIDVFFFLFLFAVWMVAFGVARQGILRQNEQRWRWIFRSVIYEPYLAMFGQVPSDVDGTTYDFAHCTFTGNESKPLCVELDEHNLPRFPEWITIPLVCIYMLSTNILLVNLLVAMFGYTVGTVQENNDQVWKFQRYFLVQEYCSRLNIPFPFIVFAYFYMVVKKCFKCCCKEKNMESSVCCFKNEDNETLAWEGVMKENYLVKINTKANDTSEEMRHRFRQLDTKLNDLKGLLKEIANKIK

| SMILES | IC50 [nM] |
| --- | --- |
| Cn1cc2ccc(CN(c3ncc(C(F)(F)F)cc3Cl)S(=O)(=O)c3ccc(C(=O)O)cc3)cc2n1 [Example 18, 4-(N-(3-Chloro-5-(trifluoromethyl)pyridin-2-yl)-N-((2-methyl-2H-indazol-6-yl)methyl)sulfamoyl)benzoic acid] | 1000 to 10000 |
| CCn1ncc2cc(CN(c3ncc(Cl)cc3Cl)S(=O)(=O)c3ccc(C(=O)O)cc3)ccc21 [Example 19, 4-(N-(3,5-Dichloropyridin-2-yl)-N-((1-ethyl-1H-indazol-5-yl)methyl)sulfamoyl)benzoic acid] | < 1000 |
| COCCn1ncc2cc(CN(c3ncc(C(F)(F)F)cc3Cl)S(=O)(=O)c3ccc(C(=O)O)cc3)ccc21 [Example 20, 4-(N-(3-Chloro-5-(trifluoromethyl)pyridin-2-yl)-N-((1-(2-methoxyethyl)-1H-indazol-5-yl)methyl)sulfamoyl)benzoic acid] | < 1000 |
| O=C(O)c1ccc(S(=O)(=O)N(Cc2ccc3c(cnn3C3CCOCC3)c2)c2ncc(C(F)(F)F)cc2Cl)cc1 [Example 21, 4-(N-(3-Chloro-5-(trifluoromethyl)pyridin-2-yl)-N-((1-(tetrahydro-2H-pyran-4-yl)-1H-indazol-5-yl)methyl)sulfamoyl)benzoic acid] | < 1000 |
| CC(C)(O)Cn1ncc2cc(CN(c3ncc(C(F)(F)F)cc3Cl)S(=O)(=O)c3ccc(C(=O)O)cc3)ccc21 [Example 22, 4-(N-(3-Chloro-5-(trifluoromethyl)pyridin-2-yl)-N-((1-(2-hydroxy-2-methylpropyl)-1H-indazol-5-yl)methyl)sulfamoyl)benzoic acid] | 1000 to 10000 |
| CCc1cc(C(=O)O)ccc1S(=O)(=O)N(Cc1ccc2c(cnn2C)c1)c1ncc(Cl)cc1Cl [Example 23, 4-(N-(3,5-Dichloropyridin-2-yl)-N-((1-methyl-1H-indazol-5-yl)methyl)sulfamoyl)-3-ethylbenzoic acid] | < 1000 |
| Cn1ncc2cc(CN(c3ncc(Cl)cc3Cl)S(=O)(=O)c3ccc(C(=O)O)cc3Cl)ccc21 [Example 24, 3-Chloro-4-(N-(3,5-dichloropyridin-2-yl)-N-((1-methyl-1H-indazol-5-yl)methyl)sulfamoyl)benzoic acid] | < 1000 |
| Cn1ncc2cc(CN(c3ncc(C(F)(F)F)cc3Cl)S(=O)(=O)c3ccc(C(=O)O)cc3Cl)ccc21 [Example 25, 3-Chloro-4-(N-(3-chloro-5-(trifluoromethyl)pyridin-2-yl)-N-((1-methyl-1H-indazol-5-yl)methyl)sulfamoyl)benzoic acid] | < 1000 |
| Cc1cc(C(=O)O)ccc1S(=O)(=O)N(Cc1ccc2c(cnn2C)c1)c1ncc(C(F)(F)F)cc1Cl [Example 26, 4-(N-(3-Chloro-5-(trifluoromethyl)pyridin-2-yl)-N-((1-methyl-1H-indazol-5-yl)methyl)sulfamoyl)-3-methylbenzoic acid] | < 1000 |
| Cc1cc(C(=O)O)ccc1S(=O)(=O)N(Cc1ccc2c(cnn2C)c1)c1ncc(Cl)cc1Cl [Example 27, 4-(N-(3,5-Dichloropyridin-2-yl)-N-((1-methyl-1H-indazol-5-yl)methyl)sulfamoyl)-3-methylbenzoic acid] | < 1000 |
| O=C(O)c1ccc(S(=O)(=O)N(Cc2ccc3c(cnn3C3CC3)c2)c2ncc(C(F)(F)F)cc2Cl)cc1 [Example 28, 4-(N-(3-Chloro-5-(trifluoromethyl)pyridin-2-yl)-N-((1-cyclopropyl-1H-indazol-5-yl)methyl)sulfamoyl)benzoic acid] | < 1000 |
| O=C(O)c1ccc(S(=O)(=O)N(Cc2ccc3c(cnn3C3CC3)c2)c2ncc(Cl)cc2Cl)cc1 [Example 29, 4-(N-((1-Cyclopropyl-1H-indazol-5-yl)methyl)-N-(3,5-dichloropyridin-2-yl)sulfamoyl)benzoic acid] | < 1000 |
| Cn1nnc2cc(CN(c3ncc(C(F)(F)F)cc3Cl)S(=O)(=O)c3ccc(C(=O)O)cc3)ccc21 [Example 30, 4-(N-(3-Chloro-5-(trifluoromethyl)pyridin-2-yl)-N-((1-methyl-1H-benzo[d][1,2,3]triazol-5-yl)methyl)sulfamoyl)benzoic acid] | 1000 to 10000 |
| O=C(O)c1ccc(S(=O)(=O)N(Cc2ccc3c(cnn3C3CC3)c2)c2ncc(C(F)(F)F)cc2Cl)c(Cl)c1 [Example 31, 3-Chloro-4-(N-(3-chloro-5-(trifluoromethyl)pyridin-2-yl)-N-((1-cyclopropyl-1H-indazol-5-yl)methyl)sulfamoyl)benzoic acid] | < 1000 |
| O=C(O)c1ccc(S(=O)(=O)N(Cc2ccc3c(cnn3C3CC3)c2)c2ncc(Cl)cc2Cl)c(Cl)c1 [Example 32, 3-Chloro-4-(N-((1-cyclopropyl-1H-indazol-5-yl)methyl)-N-(3,5-dichloropyridin-2-yl)sulfamoyl)benzoic acid] | < 1000 |
| Cc1cc(C(=O)O)ccc1S(=O)(=O)N(Cc1ccc2c(cnn2C2CC2)c1)c1ncc(C(F)(F)F)cc1Cl [Example 33, 4-(N-(3-Chloro-5-(trifluoromethyl)pyridin-2-yl)-N-((1-cyclopropyl-1H-indazol-5-yl)methyl)sulfamoyl)-3-methylbenzoic acid] | < 1000 |
| Cc1cc(C(=O)O)ccc1S(=O)(=O)N(Cc1ccc2c(cnn2C2CC2)c1)c1ncc(Cl)cc1Cl [Example 34, 4-(N-((1-Cyclopropyl-1H-indazol-5-yl)methyl)-N-(3,5-dichloropyridin-2-yl)sulfamoyl)-3-methylbenzoic acid] | < 1000 |
| Cn1ccc2cc(CN(c3ncc(C(F)(F)F)cc3Cl)S(=O)(=O)c3ccc(C(=O)O)cc3Cl)cnc21 [Example 35, 3-Chloro-4-(N-(3-chloro-5-(trifluoromethyl)pyridin-2-yl)-N-((1-methyl-1H-pyrrolo[2,3-b]pyridin-5-yl)methyl)sulfamoyl)benzoic acid] | < 1000 |
| Cn1ccc2cc(CN(c3ncc(Cl)cc3Cl)S(=O)(=O)c3ccc(C(=O)O)cc3Cl)cnc21 [Example 36, 3-Chloro-4-(N-(3,5-dichloropyridin-2-yl)-N-((1-methyl-1H-pyrrolo[2,3-b]pyridin-5-yl)methyl)sulfamoyl)benzoic acid] | 1000 to 10000 |
| Cn1ccc2cc(CN(c3ncc(C(F)(F)F)cc3Cl)S(=O)(=O)c3ccc(C(=O)O)cc3)cnc21 [Example 37, 4-(N-(3-Chloro-5-(trifluoromethyl)pyridin-2-yl)-N-((1-methyl-1H-pyrrolo[2,3-b]pyridin-5-yl)methyl)sulfamoyl)benzoic acid] | < 1000 |
| O=C(O)c1ccc(S(=O)(=O)N(Cc2cnc3ccccc3c2)c2ncc(C(F)(F)F)cc2Cl)cc1 [Example 38, 4-(N-(3-Chloro-5-(trifluoromethyl)pyridin-2-yl)-N-(quinolin-3-ylmethyl)sulfamoyl)benzoic acid] | < 1000 |
| O=C(O)c1ccc(S(=O)(=O)N(Cc2ccc3ncccc3c2)c2ncc(C(F)(F)F)cc2Cl)cc1 [Example 39, 4-(N-(3-Chloro-5-(trifluoromethyl)pyridin-2-yl)-N-(quinolin-6-ylmethyl)sulfamoyl)benzoic acid] | < 1000 |
